Like-named read-outs stand apart in the source and are kept apart here.
Experiments:
[1] = biological target: T1, PKCη (Homo sapiens, UniProt P24723); design: method as in PMID 22078216; conditions: co-crystallized inhibitor at PKCη; cited from earlier work
[2] = biological target: T2, PKCα (Homo sapiens, UniProt P17252); experiment: In vitro kinase assay (32P-MBP phosphorylation by immunoprecipitated HA-tagged PKC); assay type: biochemical; conditions: MBP substrate, 100 μM cold ATP, 30 min at 32 °C
T2 construct: made in house; host or cells: HEK-293T
Protocol: (§1) To test the effect of DTBN on the activity of PKC isoforms, in vitro kinase assays were performed in a dose–response experiment, and results are presented in Figure 1. At these concentrations, the kinase activities of PKCs were inhibited by DTBN in a dose-dependent manner, having the most profound effect on conventional PKCα and PKCγ as compared to other PKCs tested (Figure 1 and Table 1). […] Immunoblotting was performed with antibodies against HA-tagged different PKCs and against Myelin Basic Protein (MBP) as a loading control.
(§2) Figure 1 DTBN downregulates PKC catalytic activity in a concentration-dependent manner. In vitro kinase assays of indicated PKC isoforms were performed, as described in Materials and Methods, utilizing MBP as a substrate. Before the initiation of the assay, DTBN was added to the samples at several concentrations. Following the termination of the assay, sample proteins were then resolved by SDS-PAGE and developed by autoradiography (a). p^32-MBP and MBP protein band signals were quantified using Image Lab software, and the relative amounts of p^32-MBP/MBP were presented in a line graph (b). Immunoblotting against HA and MBP to detect overexpressed PKC expression, and MBP, respectively, monitor equal loading of samples. Data are representative of two independent experiments. Molecular weight markers (in kDa) are indicated on the left, and arrows mark the positions of the indicated protein bands. IgH, Ig heavy chain.
(§3) PKC kinase assays were performed, as described, using myelin-basic protein (5 μg/100 μL) (MBP, #M1891, Sigma-Aldrich, St. Louis, MO, USA) as a substrate. Whole-cell lysates (75 μg per sample) of HEK-293T cells, each overexpressing different HA-tagged PKCs, were subjected to immunoprecipitation using protein A/G-agarose bead-immobilized anti-HA mAbs (#MMS-101R, BioLegend, San Diego, CA, USA). The immunoprecipitates were washed four times with Triton X-100-containing lysis buffer, and lastly with PKC kinase assay buffer (20 mM HEPES, pH 7.5, 10 mM MgCl2, and 0.1 mM EGTA). The immunoprecipitates were then equally divided to Eppendorf safe-lock tubes, followed by the addition of indicated concentrations of DTBN (μg/mL) and subsequent incubation in a kinase reaction mixture (10 mM ΜgCl2, 20 mM HEPES, 0.1 mM EGTA, 50 μg/mL phosphatidylserine, and 5μCi γ-32P-ATP (PerkinElmer, Waltham, MA, USA), also including 100 μM cold ATP and 1.5 mM CaCl2 (for conventional PKCs), and incubated for 30 min at 32 °C with gentle shaking. Reactions were terminated by the addition of 5× sample buffer and boiling for 5 min, followed by SDS-PAGE (10% acrylamide gels) under reducing conditions. Samples were then transferred to nitrocellulose membranes (Sigma-Aldrich) that were developed by immunoblotting and autoradiography. After the detection of the phosphorylated substrate (^32P-MBP) by autoradiography, the membranes were probed with anti-HA and anti-MBP mAbs (#SMI-99P, BioLegend, San Diego, CA, USA), (loading controls). ^32P-MBP and MBP protein bands were quantified using Image Lab software (5.2.1).

[3] = biological target: T3, PKCγ (Homo sapiens, UniProt P05129); experiment: as above; assay type: biochemical; conditions: MBP substrate, 100 μM cold ATP, 30 min at 32 °C
T3 construct: made in house; host or cells: HEK-293T
Protocol: as §1, §2, §3

[4] = biological target: T4, PKCδ (Homo sapiens, UniProt Q05655); experiment: as above; assay type: biochemical; conditions: MBP substrate, 100 μM cold ATP, 30 min at 32 °C
T4 construct: made in house; host or cells: HEK-293T
Protocol: as §1, §2, §3

[5] = biological target: T5, PKCε (Homo sapiens, UniProt Q02156); experiment: as above; assay type: biochemical; conditions: MBP substrate, 100 μM cold ATP, 30 min at 32 °C
T5 construct: made in house; host or cells: HEK-293T
T5 sequence (Q02156 1-737): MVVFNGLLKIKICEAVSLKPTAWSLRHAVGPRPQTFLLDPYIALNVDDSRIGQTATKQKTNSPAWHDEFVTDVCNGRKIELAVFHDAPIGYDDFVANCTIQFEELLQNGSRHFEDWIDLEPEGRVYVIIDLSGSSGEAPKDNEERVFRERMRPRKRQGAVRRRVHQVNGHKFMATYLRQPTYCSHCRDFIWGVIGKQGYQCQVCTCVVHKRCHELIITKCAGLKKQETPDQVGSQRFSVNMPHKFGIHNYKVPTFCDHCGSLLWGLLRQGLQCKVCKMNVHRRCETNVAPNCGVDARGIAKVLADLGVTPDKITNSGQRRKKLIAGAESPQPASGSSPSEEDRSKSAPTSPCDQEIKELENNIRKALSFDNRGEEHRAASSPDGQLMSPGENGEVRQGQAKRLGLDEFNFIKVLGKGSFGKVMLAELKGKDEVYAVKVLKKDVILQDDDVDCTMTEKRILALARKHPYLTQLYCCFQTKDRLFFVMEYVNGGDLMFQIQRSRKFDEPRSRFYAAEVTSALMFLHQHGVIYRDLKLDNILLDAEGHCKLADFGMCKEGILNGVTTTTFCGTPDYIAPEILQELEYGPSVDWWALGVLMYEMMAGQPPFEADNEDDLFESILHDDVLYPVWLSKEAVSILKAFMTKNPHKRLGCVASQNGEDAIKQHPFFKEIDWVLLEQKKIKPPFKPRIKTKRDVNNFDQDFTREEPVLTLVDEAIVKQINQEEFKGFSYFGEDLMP
Protocol: as §1, §2, §3

[6] = biological target: T6, PKCζ (Homo sapiens, UniProt Q05513); experiment: as above; assay type: biochemical; conditions: MBP substrate, 100 μM cold ATP, 30 min at 32 °C
T6 construct: made in house; host or cells: HEK-293T
T6 sequence (Q05513 1-592): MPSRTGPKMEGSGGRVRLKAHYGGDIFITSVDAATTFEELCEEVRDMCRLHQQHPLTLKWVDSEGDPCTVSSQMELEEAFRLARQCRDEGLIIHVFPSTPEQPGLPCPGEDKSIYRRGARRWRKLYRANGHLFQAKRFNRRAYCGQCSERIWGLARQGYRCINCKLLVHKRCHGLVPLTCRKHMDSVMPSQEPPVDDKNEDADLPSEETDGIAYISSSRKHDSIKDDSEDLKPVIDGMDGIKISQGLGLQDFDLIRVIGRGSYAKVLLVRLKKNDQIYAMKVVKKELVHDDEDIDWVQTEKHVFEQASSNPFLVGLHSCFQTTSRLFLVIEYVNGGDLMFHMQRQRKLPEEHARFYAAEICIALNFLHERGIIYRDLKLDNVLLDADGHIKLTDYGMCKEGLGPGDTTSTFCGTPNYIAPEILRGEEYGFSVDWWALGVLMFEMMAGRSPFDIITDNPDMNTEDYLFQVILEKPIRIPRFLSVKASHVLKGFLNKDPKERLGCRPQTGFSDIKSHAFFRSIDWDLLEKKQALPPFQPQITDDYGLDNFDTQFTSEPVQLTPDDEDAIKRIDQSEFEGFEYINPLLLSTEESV
Protocol: as §1, §2, §3

[7] = biological target: T1, PKCη; experiment: as above; assay type: biochemical; conditions: MBP substrate, 100 μM cold ATP, 30 min at 32 °C
Protocol: as §1, §2, §3

[8] = read-out: IC50 Values (μg/mL) (converted)

T1 sequence (P24723 whole entry): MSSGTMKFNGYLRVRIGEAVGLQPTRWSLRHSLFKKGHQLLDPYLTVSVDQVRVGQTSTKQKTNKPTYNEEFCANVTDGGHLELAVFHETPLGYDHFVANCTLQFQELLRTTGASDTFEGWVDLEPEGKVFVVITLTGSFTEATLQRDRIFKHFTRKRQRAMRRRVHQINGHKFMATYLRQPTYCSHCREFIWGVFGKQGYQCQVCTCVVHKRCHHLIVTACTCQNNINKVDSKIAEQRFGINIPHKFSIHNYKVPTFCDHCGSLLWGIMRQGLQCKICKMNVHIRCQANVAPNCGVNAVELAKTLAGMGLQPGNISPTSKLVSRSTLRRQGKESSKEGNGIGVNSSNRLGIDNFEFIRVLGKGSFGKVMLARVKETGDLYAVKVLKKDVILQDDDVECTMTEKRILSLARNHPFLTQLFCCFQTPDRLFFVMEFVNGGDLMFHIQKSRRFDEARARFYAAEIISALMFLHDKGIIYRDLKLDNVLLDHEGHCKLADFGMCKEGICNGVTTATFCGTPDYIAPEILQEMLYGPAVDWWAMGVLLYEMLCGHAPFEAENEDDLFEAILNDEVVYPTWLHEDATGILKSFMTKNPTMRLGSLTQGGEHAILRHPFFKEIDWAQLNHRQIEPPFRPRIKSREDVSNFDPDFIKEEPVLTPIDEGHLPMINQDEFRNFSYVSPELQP
T4 sequence (Q05655 whole entry): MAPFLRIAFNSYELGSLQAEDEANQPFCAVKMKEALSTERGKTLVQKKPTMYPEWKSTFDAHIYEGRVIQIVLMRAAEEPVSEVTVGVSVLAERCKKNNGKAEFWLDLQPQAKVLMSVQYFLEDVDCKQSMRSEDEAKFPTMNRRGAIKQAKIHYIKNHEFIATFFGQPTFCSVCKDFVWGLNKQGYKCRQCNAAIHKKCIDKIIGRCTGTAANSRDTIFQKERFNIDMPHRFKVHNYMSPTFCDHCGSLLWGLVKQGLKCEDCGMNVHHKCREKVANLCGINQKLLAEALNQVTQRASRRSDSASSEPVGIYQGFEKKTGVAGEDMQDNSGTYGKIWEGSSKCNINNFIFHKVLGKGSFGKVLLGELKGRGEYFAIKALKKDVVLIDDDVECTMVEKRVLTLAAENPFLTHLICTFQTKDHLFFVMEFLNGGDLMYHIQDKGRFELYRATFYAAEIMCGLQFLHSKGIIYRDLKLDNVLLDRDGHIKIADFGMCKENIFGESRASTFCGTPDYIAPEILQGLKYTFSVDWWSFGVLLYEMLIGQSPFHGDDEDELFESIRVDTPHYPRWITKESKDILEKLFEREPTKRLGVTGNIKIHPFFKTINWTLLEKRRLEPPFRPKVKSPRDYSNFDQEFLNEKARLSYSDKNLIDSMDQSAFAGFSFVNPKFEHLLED

Row | SMILES | IC50 [1] [µM] | IC50 ([2]; read-out: IC50 Values) [µM] | IC50 [2, 8] [µM] | IC50 ([3]; read-out: IC50 Values) [µM] | IC50 [3, 8] [µM] | IC50 ([4]; read-out: IC50 Values) [µM] | IC50 ([4]; read-out: IC50 Values (μg/mL)) [µM] | IC50 ([5]; read-out: IC50 Values) [µM] | IC50 [5, 8] [µM] | IC50 ([6]; read-out: IC50 Values) [µM] | IC50 [6, 8] [µM] | IC50 ([7]; read-out: IC50 Values) [µM] | IC50 ([7]; read-out: IC50 Values (μg/mL)) [µM]
1 | c1cc2cnccc2cn1 [2,6-Naphthyridine] | 0.009 | – | – | – | – | – | – | – | – | – | – | – | –
2 | CC1CCC(c2ccoc2)N2C1CCC1(CSC3(CCC4C(C)CCC(c5ccoc5)N4C3O)C1)C2O (stereo not shown) [DTBN, 6,6′-dihydroxythiobinupharidine] | – | 0.174 | 0.175 | 0.168 | 0.169 | > 19 | > 19 | 14.2 | 14.2 | 18.6 | 18.6 | > 19 | > 19
